pIC50: −log10 of the molar value.
Biological target: Reverse transcriptase protein (Human immunodeficiency virus 1, UniProt Q9WJQ2)
Experiment: Inhibition of HIV1 reverse transcriptase K103N mutant by HeLa-MAGI assay

SMILES	pIC50
Cc1c(C(C)(C)C)s/c(=N\S(=O)(=O)c2cccc([N+](=O)[O-])c2)n1C [3-substituted thiazolidene deriv. 17a]	4.89

Biological target: not listed separately
Experiment: Inhibition of HIV1 reverse transcriptase K103N mutant by HeLa-MAGI assay

SMILES	pIC50
Cc1cc(C#N)cc(C(=O)c2cc(Cl)ccc2OCC(=O)Nc2cnc(S(N)(=O)=O)cc2C)c1	8.15
CC(C)c1s/c(=N\S(=O)(=O)c2cc(Cl)ccc2O)n(C)c1Cl [5-chloro-N-[(2Z)-4-chloro-3-methyl-5-(propan-2-yl)-2,3-dihydro-1,3-thiazol-2-ylidene]-2-hydroxybenzene-1-sulfonamide]	6.80
Cc1cc(S(N)(=O)=O)ccc1NC(=O)COc1ccc(Cl)cc1C(=O)c1cc(Cl)cc(Br)c1	8.21
COCCOCCOc1ccc(NC(=O)COc2ccc(Cl)cc2C(=O)c2cc(F)cc(C(F)(F)F)c2)c(C)c1	7.80
C=Cc1s/c(=N\S(=O)(=O)c2cccc([N+](=O)[O-])c2)n(C)c1C [N-(3,4-Dimethyl-5-vinyl-1,3-thiazol-2(3H)-ylidene)-3-nitrobenzenesulfonamide]	5.21
Cc1cc(S(=O)(=O)N(C)C)ccc1NC(=O)COc1ccc(Cl)cc1C(=O)c1cc(F)cc(C(F)(F)F)c1	8.22
Cc1c(C(C)C)s/c(=N\S(=O)(=O)c2cc(Cl)ccc2C#N)n1C [5-chloro-2-cyano-N-[(2Z)-3,4-dimethyl-5-(propan-2-yl)-2,3-dihydro-1,3-thiazol-2-ylidene]benzene-1-sulfonamide]	5.20
Cc1cc(OCCCNC(N)=O)ccc1NC(=O)COc1ccc(Cl)cc1C(=O)c1cc(F)cc(C(F)(F)F)c1	8.40
Cc1cc(S(N)(=O)=O)ccc1NC(=O)COc1ccc(Cl)cc1C(=O)c1cc(Br)cc(C(F)(F)F)c1	7.03
Cc1cc(N2CC[S+]([O-])CC2)ccc1NC(=O)COc1ccc(Cl)cc1C(=O)c1cccc(C#N)c1	8.30
Cc1cc(C)cc(C(=O)c2cc(Cl)ccc2OCC(=O)Nc2ccc(S(N)(=O)=O)cc2C)c1	8.48
Cc1cc(S(N)(=O)=O)ncc1NC(=O)COc1ccc(Cl)cc1C(=O)c1cc(Cl)cc(C#N)c1	8.30
CC(C)c1s/c(=N\S(=O)(=O)c2cc(Br)ccc2O)n(C)c1Cl [5-bromo-N-[(2Z)-4-chloro-3-methyl-5-(propan-2-yl)-2,3-dihydro-1,3-thiazol-2-ylidene]-2-hydroxybenzene-1-sulfonamide]	7.40
Cc1cc(NC(=O)CCN2CCOCC2)ccc1NC(=O)COc1ccc(Cl)cc1C(=O)c1cc(F)cc(F)c1	8.05
CCc1s/c(=N\S(=O)(=O)c2cccc([N+](=O)[O-])c2)n(C)c1C [N-[(2Z)-5-ethyl-3,4-dimethyl-2,3-dihydro-1,3-thiazol-2-ylidene]-3-nitrobenzene-1-sulfonamide]	5.20
CC(C)c1s/c(=N\S(=O)(=O)c2cccc([N+](=O)[O-])c2)n(C)c1C(F)(F)F [N-[(2Z)-3-methyl-5-(propan-2-yl)-4-(trifluoromethyl)-2,3-dihydro-1,3-thiazol-2-ylidene]-3-nitrobenzene-1-sulfonamide]	4.38
CC(C)c1s/c(=N\S(=O)(=O)c2cc(C#N)ccc2C#N)n(C)c1Cl [N-(4-Chloro-5-isopropyl-3-methyl-1,3-thiazol-2(3H)-ylidene)-2,5-dicyanobenzenesulfonamide]	5.52
Cc1nc(S(N)(=O)=O)ccc1NC(=O)COc1ccc(Cl)cc1C(=O)c1cc(Cl)cc(C#N)c1	8.52
Cc1cc(S(N)(=O)=O)ccc1NC(=O)COc1ccc(Cl)cc1C(=O)c1cc(C#N)cc(C(F)(F)F)c1	8.96
Cc1c(C(C)C)s/c(=N\S(=O)(=O)c2cccc([N+](=O)[O-])c2)n1C [N-(3,4-Dimethyl-5-isopropyl-1,3-thiazol-2(3H)-ylidene)-3-nitrobenzenesulfonamide]	4.70
COc1ccc(NC(=O)COc2ccc(Cl)cc2C(=O)c2cc(F)cc(F)c2)cn1	7.14
Cc1cc(Cl)cc(C(=O)c2cc(Cl)ccc2OCC(=O)Nc2ccc(S(N)(=O)=O)cc2C)c1	8.44
Cc1cc(N2CC[S+]([O-])CC2)ccc1NC(=O)COc1ccc(Cl)cc1C(=O)c1ccccc1	7.00
Cc1cc(C#N)cc(C(=O)c2cc(Cl)ccc2OCC(=O)Nc2ccc(S(N)(=O)=O)nc2C)c1	8.22
CCN(CC)CCCNc1ccc(NC(=O)COc2ccc(Cl)cc2C(=O)c2cc(F)cc(F)c2)c(C)c1	7.02

SMILES	pIC50
Cc1cc(N2CC[S+]([O-])CC2)ccc1NC(=O)COc1ccc(Cl)cc1C(=O)c1ccc(C#N)cc1	7.36
Cc1c(C(C)(C)C)s/c(=N\S(=O)(=O)c2ccccc2O)n1C [N-[(2Z)-5-tert-butyl-3,4-dimethyl-2,3-dihydro-1,3-thiazol-2-ylidene]-2-hydroxybenzene-1-sulfonamide]	4.50
Cc1cc(S(N)(=O)=O)ccc1NC(=O)COc1ccc(Cl)cc1C(=O)c1cc(F)cc(C(F)(F)F)c1 [GW4511]	8.70
Cc1cc(OCCCS(N)(=O)=O)ccc1NC(=O)COc1ccc(Cl)cc1C(=O)c1cc(F)cc(C(F)(F)F)c1 [GW3011]	8.40
Cc1cc(NCCCn2ccnc2)ccc1NC(=O)COc1ccc(Cl)cc1C(=O)c1cc(F)cc(F)c1	6.80
COc1cc(OC)cc(C(=O)c2cc(Cl)ccc2OCC(=O)Nc2ccc(S(N)(=O)=O)cc2C)c1	6.43
CC(C)c1s/c(=N\S(=O)(=O)c2cccc([N+](=O)[O-])c2)n(C)c1Cl [thiazolidenebenzenesulfonamide deriv. 17k]	5.16
Cc1cc(NCCCN2CCCC2)ccc1NC(=O)COc1ccc(Cl)cc1C(=O)c1cc(F)cc(F)c1	6.96
Cc1cc(N2CC[S+]([O-])CC2)ccc1NC(=O)COc1ccc(Cl)cc1C(=O)c1ccccc1C#N	6.81
Cc1cc(S(N)(=O)=O)ccc1NC(=O)COc1ccc(Cl)cc1C(=O)c1cccc(C#N)c1	8.82
Cc1c(C(C)C)s/c(=N\S(=O)(=O)c2cc(Br)ccc2C#N)n1C [5-Bromo-2-cyano-N-(5-isopropyl-3,4-dimethyl-1,3-thiazol-2(3H)-ylidene)benzenesulfonamide]	5.40
Cc1[nH]/c(=N/S(=O)(=O)c2cccc([N+](=O)[O-])c2)sc1C(C)(C)C	4.49
Cc1c(C(C)(C)C)s/c(=N\S(=O)(=O)c2cc(Cl)ccc2O)n1C [N-(5-tert-Butyl-3,4-dimethyl-1,3-thiazol-2(3H)-ylidene)-5-chloro-2-hydroxybenzenesulfonamide]	6.00
Cc1c(C(C)(C)C)s/c(=N\S(=O)(=O)c2cc(Cl)ccc2N)n1C [2-amino-N-[(2Z)-5-tert-butyl-3,4-dimethyl-2,3-dihydro-1,3-thiazol-2-ylidene]-5-chlorobenzene-1-sulfonamide]	4.80
CC(C)c1s/c(=N\S(=O)(=O)c2cc(Cl)ccc2C#N)n(C)c1Cl [5-Chloro-N-(4-chloro-5-isopropyl-3-methyl-1,3-thiazol-2(3H)-ylidene)-2-cyanobenzenesulfonamide]	5.40
O=C(COc1ccc(Cl)cc1C(=O)c1cc(F)cc(F)c1)Nc1ccc(Cl)nc1	7.17
Cc1cc(S(N)(=O)=O)ccc1NC(=O)COc1ccc(Cl)cc1C(=O)c1cncc(C#N)c1	6.85
Cc1c(C(C)(C)C)s/c(=N\S(=O)(=O)c2cccc(Cl)c2)n1C [N-[(2Z)-5-tert-butyl-3,4-dimethyl-2,3-dihydro-1,3-thiazol-2-ylidene]-3-chlorobenzene-1-sulfonamide]	5.00
CNS(=O)(=O)c1ccc(NC(=O)COc2ccc(Cl)cc2C(=O)c2cc(F)cc(C(F)(F)F)c2)c(C)c1	8.70
Cc1cc(C#N)cc(C(=O)c2cc(Cl)ccc2OCC(=O)Nc2ccc(S(N)(=O)=O)cc2C)c1	9.05
Cc1c(C(C)C)s/c(=N\S(=O)(=O)c2cc(C#N)ccc2C#N)n1C [thiazolidenebenzenesulfonamide deriv.]	5.40
Cc1cc(S(N)(=O)=O)ccc1NC(=O)COc1ccc(Cl)cc1C(=O)c1cc(Cl)cc(C#N)c1 [GW678248]	9.00
Cc1ccccc1NC(=O)COc1ccc(Cl)cc1C(=O)c1cc(F)cc(F)c1	7.42
Cc1cc(C#N)cc(C(=O)c2cc(Cl)ccc2OCC(=O)Nc2ncc(S(N)(=O)=O)cc2C)c1	7.03
